{"source": "patent US12714698B2", "about": "“Compositions and methods for treating or preventing dermal disorders” (Drexel University, priority 2015, dated 2026)", "format_in_all_cases": "cell-based", "key": {"[1]": {"test_system": "human cardiac fibroblasts", "assay": "Immunoblot of senescence markers (p53, p21, p16, lamin B1, IL-6)", "procedure": "(§1) Cell culture experiments utilizing NRTIs were of the following design. Cultures of either human lung or cardiac fibroblasts were cultivated according to standard culture protocols for these cells (Cristofalo, et al., Journal of Tissue Culture Methods 1980, 6:117-121). Parallel sets of cultures were maintained in normal growth media or in normal growth media with the addition of 1 nM rapamycin. Cultures were maintained with 1 nM rapamycin (Enzo Biologicals) for two weeks before exposure to NRTIs. Cell cultures were exposed to NRTIs at indicated concentrations in individual experiments (generally 10-20 μg/ml) for 7 days, with a change of media and fresh NRTIs at day 4. Mitochondrial measurements, bioanalyzer measurements, immunoblotting for protein expression and phosphorylation status, and assays for senescence were performed at the end of this 7-day period.\nCell culture reagents were from Cellgro, unless indicated. WI-38 fetal-lung primary human fibroblasts or human cardiac fibroblasts were grown in MEM supplemented with 10% fetal bovine serum, 1% L-glutamine, MEM vitamins, and MEM non-essential amino acids. Cells were maintained in a 37° C. in 5% CO2 incubator. For treatment studies, cells were treated with 1 nM rapamycin (Enzo Biologicals) for two weeks before treatment with NRTIs. Cells were maintained by trypsinization and reseeding at a cell density of 1×10^4/cm^2 every 7 to 10 days. Emtricitabine (FTC) and tenofovir disoproxil fumarate (TDF) were kindly provided by the NIH AIDS Research & Reference Reagent program. During the 7-day exposure to the NRTIs, the pharmacologic inhibitors PD98059 (10 μM, Santa Cruz Biotechnologies), BI-D1870, GW5074, and SB203580 (10 μM, Enzo Biologicals) were added to the culture medium either during the final 48 hours or for the final 2 hours depending upon the experiment. During the 7-day exposure to NRTIs, Trolox (500 μM) and N-acetylcysteine (100 μM, Acros Organics) were added every other day. Mito-Q (20 nM) and TPP (20 nM) were kindly provided by Dr. Brett Kaufmann at the University of Pennsylvania School of Veterinary Medicine. Vector and mt-catalase adenoviruses (MOI's 25, 50, and 75) were purchased from Gene Transfer Vector Core from the University of Iowa.\nCell protein extracts were prepared by extracting with radioimmunoprecipitation assay (RIPA) buffer containing a protease inhibitor cocktail (Sigma-Aldrich) and phosphatase inhibitors, NaF and sodium orthovanadate. Protein concentration was quantified using a bicinchoninic acid (BCA) assay (Pierce Biotechnology). […] For co-immunoprecipitation, cell protein extracts were prepared in HNTG buffer containing a protease inhibitor cocktail and quantified using BCA assay. […]"}, "[2]": {"test_system": "human cardiac fibroblasts", "assay": "Senescence-associated beta-galactosidase detection", "settings": "rapamycin treated cultures (1 nM)", "procedure": "as §1\nAssessment of SA-β-gal activity was performed by plating cells following respective treatments at low density (0.5×10^4/cm^2) to prevent false positive staining known to occur in high density cultures. […] Following incubation, cells were washed three times with PBS and at least 500 cells were counted for each sample in triplicates. Positive cells (blue cells) were expressed as a percentage of total cells."}, "human lung fibroblasts": {"test_system": "human lung fibroblasts", "assay": "Mitochondrial respiration, Seahorse Bioanalyzer, lung fibroblasts", "settings": "rapamycin-treated lung fibroblasts", "protocol": "Cell culture reagents were from Cellgro, unless indicated. […]\nMitochondrial function was measured using the XF cell mito stress test kit on a Seahorse XF24 Bioanalyzer (Seahorse Bioscience). […] Following acquisition, results were normalized based upon 10^6 cells counted using a Guava EasyCyte Mini (Millipore), where applicable. […] Mitochondrial respiration was calculated based upon oxygen consumption rate measurements in triplicates from cells seeded in at least quadruplicates. […]"}}}
{"smiles": "CO[C@H]1C[C@@H]2CC[C@@H](C)[C@@](O)(O2)C(=O)C(=O)N2CCCC[C@H]2C(=O)O[C@H]([C@H](C)C[C@@H]2CC[C@@H](O)[C@H](OC)C2)CC(=O)[C@H](C)/C=C(\\C)[C@@H](O)[C@@H](OC)C(=O)[C@H](C)C[C@H](C)/C=C/C=C/C=C/1C", "note": "[rapamycin]", "values": [{"measurement": "NRTI-induced decrease of lamin B1", "setting": "[1]; rapamycin (1 nM)", "result": "prevented this decrease"}, {"measurement": "levels of IL-6 following exposure to NRTIs", "setting": "[1]; rapamycin treated cells (1 nM)", "result": "no increase"}, {"measurement": "levels of p53, p21 and p16 on NRTI exposure", "setting": "[1]; rapamycin treated cells (1 nM)", "result": "did not increase"}, {"measurement": "SA-β-gal following exposure to NRTIs", "setting": "[2]", "result": "no increase"}, {"measurement": "basal and maximal respiration, proton leak following exposure to NRTIs", "setting": "human lung fibroblasts", "result": "no increase"}]}
